Columns and labels:
Parameters in all cases: species or system mice
[1] = In vivo antitumor assay, Mam16C/RP (sc); conditions: mouse, in vivo, drug iv
Excerpt: (§1) Mice: Inbred: C3H/He and NCR-nu; and Hybrids: B6D2F1 (C57BL/6 females×DBA/2 males, CD2F1 (Balb/c females×DBS/2 males) and B6C3fl (C57BL/6×C3H) were bred at Wayne State University from strains obtained from the Frederick Cancer Research Facility, Frederick, Maryland or purchased from commercial suppliers.
(§2) Tumors: Murine Tumor: P388 and an adriamycin-resistant (ADR) subline P388/ADR leukemia and the following transplantable solid tumors of mice were used for in vivo testing: B16 melanoma (B16), pancreatic ductal adenocarcinoma No. 03 (Pane 03), colon adenocarcinoma No. 38 (colo 38), lung carcinoma No. 12 (LC 12), mammary ductal adenocarcinoma No. 16/C (Mam16C) and an adriamycin-resistant subline Mam16C/ADR. Human tumor: A single human tumor, mammary carcinoma MX-1 was used for in vivo testing. All tumors are in the Developmental Therapeutics Program frozen tumor respository, maintained by the Biological Testing Branch, Frederick Maryland. Each has a detailed description, code identification number, and list of references at the National Tumor Repository. Murine tumors were maintained in the mouse strain of origin and were transplanted in the appropriate F1 hydrid (or the strain of origin) for therapy trials. Human mammary carcinoma MX-1 (MX1) was maintained as a subcutaneous implant in either athymic Swiss (Cr: NIH(S)-nu) or athymic random bred (NCR-nu) mice and transplanted in NCR-nu for therapy trials.
(§3) Chemotherapy: For pancreatic ductal adenocarcinoma No. 3, colon adenocarcinoma No. 38 (colo 38), lung carcinoma No. 12 LC 12) and both adriamycin-sensitive (RP) and-resistant (ADR) mammary ductal adenocarcinoma No. 16 (Mam16) tumors, bilateral tumor implants were used to help ensure a more uniform tumor burden per mouse (thus reducing the requirement for greater numbers of mice per group). The animals necessary to begin an experiment were pooled, implanted bilaterally s.c. on day zero with 30-60 mg tumor fragments using a 12-gauge trocar, and again pooled before randomization to the various treatment and control groups. Chemotherapy was started within three days after tumor implantation while the number of cells per mouse was relatively small (1×10^7 -1×10^8 cells).
(§4) Quantitative end points used to assess antitumor activity included % Increased Life Span (% ILS), Tumor Cell Kill (Log10 kill), and Tumor Growth Inhibition (T/C). Long Term Survivors (45 or 60 day) were excluded from calculations of %ILS and Tumor Cell Kill.
(§5) Tumors were measured with a caliper once or twice weekly (as needed) until either tumors exceeded 1600 mg or cure was assured. Tumor weights were estimated from two-dimensional measurements: Tumor Weight (mg)=(a×b^2) / 2, where a and b are the tumor length and width (ram) respectively. Measurements were carried out simultaneously in both treatment and control groups. When the control group tumors reached approximately 750-1500 mg in size (median of group), the median tumor weight of each group was determined (including zeros). The T/C value in percent is an indication of antitumor effectiveness. The % T/C was calculated from the following formula for solid murine tumor models: [formula] where T and C are median tumor weights of the treatment and control groups, respectively. […] A T/C value <10% is indicative of a high degree of antitumor activity and is the level used by National Cancer Institute to justify further development if other requirements are met (termed DN-2 level activity). By convention the T/C value for the mammary carcinoma MX-1 models is calculated by the parameter of change in tumor weight .

[2] = test system: adriamycin-sensitive (RP) mammary ductal adenocarcinoma No. 16; test: In vivo antitumor assay, Mam16C/RP (sc); conditions: drug iv
Excerpt: as §1, §2, §3, §4, §5

[3] = test system: pancreatic ductal adenocarcinoma No. 03; test: In vivo antitumor assay, Panc03(sc); conditions: for Log Kill: Panc03(sc), drug iv
Excerpt: as §1, §2, §3, §4
(§6) The log10 cell kill was calculated from the following formula: [formula] where T-C is the tumor difference in the median day of death between the treated (T) and the control (C) groups and Td is the tumor doubling time (in days), the latter estimated from the best fit straight line from a log-linear growth plot of the control-group tumors in exponential growth. The conversion of the T-C values to log10 cell kill is possible because the Td for tumors regrowing post-treatment approximated the Td values of the tumors in untreated control mice.
Tumors were measured with a caliper once or twice weekly (as needed) until either tumors exceeded 1600 mg or cure was assured. Tumor weights were estimated from two-dimensional measurements: Tumor Weight (mg)=(a×b^2) / 2, where a and b are the tumor length and width (ram) respectively. Measurements were carried out simultaneously in both treatment and control groups. When the control group tumors reached approximately 750-1500 mg in size (median of group), the median tumor weight of each group was determined (including zeros). The T/C value in percent is an indication of antitumor effectiveness. The % T/C was calculated from the following formula for solid murine tumor models: [formula] where T and C are median tumor weights of the treatment and control groups, respectively. A T/C equal to or less than 42% is considered significant antitumor activity. […]

[4] = In vivo antitumor assay, P388/ADR(iv); conditions: mouse, in vivo, iv, drug iv
Excerpt: as §1, §2
(§7) For P388 and P388/ADR leukemia studies the tumor cells were implanted either interperitoneally (IP) or intravenously (IV) on day zero and treatment was started on day one. For B16 melanoma (B16) studies, the tumor cells were implanted IP on day zero and treatment was started on day one. Titered controls were also included to facilitate the calculation of tumor cell kill. For mammary carcinoma MX-1 studies, tumors were implanted with 1) subcutaneously (sc) (14-mg fragment of sc donor tumor) in the axillary region or 2) under the subrenal capsule (SRC) (10×10×10 ocular micrometer unit fragment of sc donor tumor). Treatment started on the day after subrenal capsule tumor implant or when the subcutaneous tumor implant had reached 100-700 mg.
as §4
(§8) Endpoints were calculated as follows: [formula] where Dt is the median day of death for treated and Dc is the median day of death for control groups. A % ILS ≥20 or ≥25 for P388 and B16 intraperitoneal models, respectively, is indicative of a significant degree of antitumor activity. A % ILS ≥75 or ≥50 for P388 and B16 intraperitoneal models, , respectively, is indicative of a high degree of antitumor activity and is the level used by National Cancer Institute to justify further development if other requirements are met (termed DN-2 level activity). Minimum quantitative activity limits for additional P388 models (e.g. P388/ADR and P388, IV) have not been defined. However, the activity limits specified for the intraperitoneal models may be applied as in the majority of instances the intraperitoneal models are found to be signficantly less challenging.
as §6

[5] = test system: adriamycin-resistant (ADR) subline P388/ADR leukemia; test: In vivo antitumor assay, P388/ADR(iv); conditions: drug iv
Excerpt: as §1, §2, §7, §4, §8, §6

[6] = Mam16C/RP (sc), bid 1-5, exp 924

SMILES | MTD [1, 6] [mg/kg] | Log Kill [2, 6] | T/C % [2, 6] [%] | Log Kill ([3]; qd 3,6,9, exp 1146) | Log Kill ([3]; qd 3, exp 895A) | MTD ([4]; qd 1-3, exp 1149B) [mg/kg] | MTD ([4]; qd 1-5, exp 1073B) [mg/kg] | ILS % ([5]; qd 1-3, exp 1149B) [%] | Log Kill ([5]; qd 1-3, exp 1149B) | ILS % ([5]; qd 1-5, exp 1073B) [%] | Log Kill ([5]; qd 1-5, exp 1073B) | MTD ([1]; Mam16C/RP, bid 1-8, exp 924) [mg/kg] | Log Kill ([2]; Mam16C/RP, bid 1-8, exp 924) | T/C % ([2]; Mam16C/RP, bid 1-8, exp 924) [%] | Log Kill ([3]; qd 3-5, exp 895A) | MTD ([3]; mouse, in vivo, iv) [Mg/Kg]
Cc1cc(-c2c(F)cc3c4nn(CCN(C)C)c(=O)c-4cn(C4CC4)c3c2F)cc(C)n1.O=C(O)/C=C/C(=O)O [Example 1, 5-Cyclopropyl-6,8-difluoro-2,5-dihydro-2-[2-(dimethylamino)-ethyl]-7-(2,6-dimethyl-4-pyridinyl)-3H-pyrazolo[4,3-c]quinolin-3-one (E)-2-butendioate (1:1)] | 20 | 1.2 | 13 | 0.66 | 0.66 | 52 | 48 | 27 | 1.3 | 14.3 | 0.93 |  |  |  |  | 
Cc1cc(-c2c(F)cc3c4nn(CCCN(C)C)c(=O)c-4cn(C4CC4)c3c2F)cc(C)n1 [Example 14] |  |  |  |  |  |  |  |  |  |  |  | 101 | 1.5 | 8 | 0.60 | 64

Reference: US5334595A, “Pyrazoloquinolones as anticancer agents” (priority 1992, dated 1994)
